“Also recorded” adds a separate entry of the source.
System: HPK1
Assay: HPK1 immune complex in vitro kinase (IVK) assay, endogenous HPK1 from treated Jurkat cells
Type: cell-based, human
Settings: Lck (JCaM1), ZAP-70 (p116), Lat (ANJ-3), SLP-76 (J14) deficient lines, 10 pM PGE2

Compound: CCCCC[C@H](O)/C=C/[C@H]1[C@H](O)CC(=O)[C@@H]1C/C=C\CCCC(=O)O [PGE2, prostaglandin E2]
- HPK1 kinase activity upon PGE2 stimulation in signaling-mutant Jurkat lines: did not interfere with the ability of HPK1 to respond; also recorded: all Jurkat cell lines could activate HPK1 kinase activity

Source: patent US20070087988A1, “Hematopoietic progenitor kinase 1 for modulation of an immune response” (New York University, priority 2005, published 2007)
